Earlier results, collected in patent US20220160669A1, “PARENTERAL NUTRITION FORMULATION” (BAXTER INTERNATIONAL INC., priority 2020, published 2022).

Settings: human, in vivo; cited from earlier work

SMILES: CCCC(=O)[O-].[Na+] [sodium butyrate]
- clearance rate: 4.98 ± 0.72 L/h/kg
